Counter-ions that a name gives are not always drawn. Like-named read-outs stand apart in the source and are kept apart here.
System: Acinetobacter baumannii ATCC17961
Assay: Antimicrobial susceptibility testing: 90% growth inhibitory concentration (IC90) determination
Format: cell-based
Conditions: 90% growth inhibitory concentration against Acinetobacter baumannii ATCC17961, Iso-Sensitest broth, OD 600 nm over 16 h, read-out: ATCC 17961 IC90
Procedure, shortened: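 OD600 monitored each minute over 16 h at 35±2° C for bacteria (~5×10^5 CFU/mL final) in Iso-Sensitest medium with 10-point twofold compound series (e.g. 10-0.0195 μM final). Concentration giving 90% growth inhibition in log phase reported as IC90.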

[1] = Acinetobacter baumannii, ATCC17961, 16 h

Row | Compound | IC90 [1] | IC90
1 | Cn1c(-c2cn(-c3ccc(NC[C@H](O)CO)cc3F)nc2C(F)(F)F)cnc1C(=O)Nc1ccc(C(=O)N2CCN(C(=O)[C@H]3CC[N@+](CC(=O)O)(CC4CNC4)CC3)CC2)c(Cl)c1 [Example 137, cis-2-[1-(azetidin-3-ylmethyl)-4-[4-[2-chloro-4-[[5-[1-[4-[[(2S)-2,3-dihydroxypropyl]amino]-2-fluoro-phenyl]-3-(trifluoromethyl)pyrazol-4-yl]-1-methyl-imidazole-2-carbonyl]amino]benzoyl]piperazine-1-carbonyl]piperidin-1-ium-1-yl]acetic acid;formate] | 334 nM | –
2 | Cn1c(-c2cn(-c3cc4[nH]c(C(=O)N5CCOC(F)(F)C5)cc4cn3)nc2C(F)(F)F)cnc1C(=O)Nc1ccc(C(=O)N2CCN(C(=O)[C@H]3CC[N@+](CC(=O)O)(CC4CNC4)CC3)CC2)c(Cl)c1 [Example 119, cis-2-[1-(azetidin-3-ylmethyl)-4-[4-[2-chloro-4-[[5-[1-[2-(2,2-difluoromorpholine-4-carbonyl)-1H-pyrrolo[3,2-c]pyridin-6-yl]-3-(trifluoromethyl)pyrazol-4-yl]-1-methyl-imidazole-2-carbonyl]amino]benzoyl]piperazine-1-carbonyl]piperidin-1-ium-1-yl]acetic acid. 1:1 2,2,2-trifluoroacetate] | 236 nM | –
3 | Cn1c(-c2cn(-c3ccc(N)cc3F)nc2C(F)(F)F)cnc1C(=O)Nc1ccc(C(=O)N2CCN(C(=O)N3CC[N+](CCCN)(CC(=O)O)CC3)CC2)c(Cl)c1 [Example 141, 2-[4-[4-[4-[[5-[1-(4-amino-2-fluoro-phenyl)-3-(trifluoromethyl)pyrazol-4-yl]-1-methyl-imidazole-2-carbonyl]amino]-2-chloro-benzoyl]piperazine-1-carbonyl]-1-(3-aminopropyl)piperazin-1-ium-1-yl]acetic acid. 1:1 2,2,2-trifluoroacetate] | 242 nM | –
4 | Cn1c(-c2cn(-c3cc4[nH]cc(C(=O)N5CC[C@H](O)C5)c4cn3)nc2C(F)(F)F)cnc1C(=O)Nc1ccc(C(=O)N2CCN(C(=O)[C@H]3CC[N@+](CC(=O)O)(CC4CNC4)CC3)CC2)c(Cl)c1 [Example 155, cis-2-[1-(azetidin-3-ylmethyl)-4-[4-[2-chloro-4-[[5-[1-[3-[(3S)-3-hydroxypyrrolidine-1-carbonyl]-1H-pyrrolo[3,2-c]pyridin-6-yl]-3-(trifluoromethyl)pyrazol-4-yl]-1-methyl-imidazole-2-carbonyl]amino]benzoyl]piperazine-1-carbonyl]piperidin-1-ium-1-yl]acetic acid. 1:1 2,2,2-trifluoroacetate] | 329 nM | –
5 | Cn1c(-c2cn(-c3ccc4[nH]c([C@@H](O)CO)cc4n3)nc2C(F)(F)F)cnc1C(=O)Nc1ccc(C(=O)N2CCN(C(=O)[C@H]3CC[N@+](CC(=O)O)(CC4CNC4)CC3)CC2)c(Cl)c1 [Example 106, cis-2-[1-(azetidin-3-ylmethyl)-4-[4-[2-chloro-4-[[5-[1-[2-[(1R)-1,2-dihydroxyethyl]-1H-pyrrolo[3,2-b]pyridin-5-yl]-3-(trifluoromethyl)pyrazol-4-yl]-1-methyl-imidazole-2-carbonyl]amino]benzoyl]piperazine-1-carbonyl]piperidin-1-ium-1-yl]acetic acid;chloride] | 611 nM | –
6 | Cn1c(-c2cn(-c3ccc(N)cc3F)nc2C(F)(F)F)cnc1C(=O)Nc1ccc(C(=O)N2CCN(C(=O)CCC[N+](CCCN)(CCCN)CCCC(=O)O)CC2)c(Cl)c1 [Example 182, [4-[4-[4-[[5-[1-(4-amino-2-fluoro-phenyl)-3-(trifluoromethyl)pyrazol-4-yl]-1-methyl-imidazole-2-carbonyl]amino]-2-chloro-benzoyl]piperazin-1-yl]-4-oxo-butyl]-bis(3-aminopropyl)-(3-carboxypropyl)ammonium; 2,2,2-trifluoroacetate] | – | 201 nM
7 | Cn1c(-c2cn(-c3ccc(O)cc3F)nc2C(F)(F)F)cnc1C(=O)Nc1ccc(C(=O)N2CCN(C(=O)[C@H]3CC[N@+](CC(=O)O)(CC4CNC4)CC3)CC2)c(F)c1 [Example 136, cis-2-[1-(azetidin-3-ylmethyl)-4-[4-[2-fluoro-4-[[5-[1-(2-fluoro-4-hydroxy-phenyl)-3-(trifluoromethyl)pyrazol-4-yl]-1-methyl-imidazole-2-carbonyl]amino]benzoyl]piperazine-1-carbonyl]piperidin-1-ium-1-yl]acetic acid;formate] | 173 nM | –
8 | CNc1ccc(-n2cc(-c3cnc(C(=O)Nc4ccc(C(=O)N5CCN(C(=O)[C@H]6CC[N@+](CC(=O)O)(CC7CNC7)CC6)CC5)c(F)c4)n3C)c(C(F)(F)F)n2)c(F)c1 [Example 108, cis-2-[1-(azetidin-3-ylmethyl)-4-[4-[2-fluoro-4-[[5-[1-[2-fluoro-4-(methylamino)phenyl]-3-(trifluoromethyl)pyrazol-4-yl]-1-methyl-imidazole-2-carbonyl]amino]benzoyl]piperazine-1-carbonyl]piperidin-1-ium-1-yl]acetic acid; 2,2,2-trifluoroacetate] | 58.7 nM | –
9 | Cn1c(-c2cn(-c3cc4cc(CO)[nH]c4cn3)nc2C(F)(F)F)cnc1C(=O)Nc1ccc(C(=O)N2CCN(C(=O)[C@H]3CC[N@+](CC(=O)O)(CC4CNC4)CC3)CC2)c(Cl)c1 [Example 191, cis-2-[1-(azetidin-3-ylmethyl)-4-[4-[2-chloro-4-[[1-methyl-5-[1-(2-methylol-1H-pyrrolo[2,3-c]pyridin-5-yl)-3-(trifluoromethyl)pyrazol-4-yl]imidazole-2-carbonyl]amino]benzoyl]piperazine-1-carbonyl]piperidin-1-ium-1-yl]acetic acid. 1:1 2,2,2-trifluoroacetic acid] | 315 nM | –
10 | CNc1ccc(-n2cc(-c3cnc(C(=O)Nc4ccc(C(=O)N5CCN(C(=O)C6CC[N+](CC(=O)O)(CC7CNC7)CC6)CC5)c(Cl)c4)n3C)c(C(F)(F)F)n2)nc1 (stereo not shown) [Example 25, 2-[1-(azetidin-3-ylmethyl)-4-[4-[2-chloro-4-[[1-methyl-5-[1-[5-(methylamino)-2-pyridyl]-3-(trifluoromethyl)pyrazol-4-yl]imidazole-2-carbonyl]amino]benzoyl]piperazine-1-carbonyl]piperidin-1-ium-1-yl]acetic acid. 1:1 formate] | 350 nM | –

Now from value to compound, other results behind:

Row | IC90 [1] | Compound | IC90
11 | 500 nM | CN(C)c1ccc(-n2cc(-c3cnc(C(=O)Nc4ccc(C(=O)N5CCN(C(=O)C6CC[N+](CC(=O)O)(CC7CNC7)CC6)CC5)c(Cl)c4)n3C)c(C(F)(F)F)n2)cc1 (stereo not shown) [Example 46, 2-[1-(azetidin-3-ylmethyl)-4-[4-[2-chloro-4-[[5-[1-[4-(dimethylamino)phenyl]-3-(trifluoromethyl)pyrazol-4-yl]-1-methyl-imidazole-2-carbonyl]amino]benzoyl]piperazine-1-carbonyl]piperidin-1-ium-1-yl]acetic acid. 1:1 formate] | –
12 | 783 nM | CN(C)S(=O)(=O)n1c(CCO)cc2cnc(-n3cc(-c4cnc(C(=O)Nc5ccc(C(=O)N6CCN(C(=O)[C@H]7CC[N@+](CC(=O)O)(CC8CNC8)CC7)CC6)c(Cl)c5)n4C)c(C(F)(F)F)n3)cc21 [Example 158, cis-2-[1-(azetidin-3-ylmethyl)-4-[4-[2-chloro-4-[[5-[1-[1-(dimethylsulfamoyl)-2-(2-hydroxyethyl)pyrrolo[3,2-c]pyridin-6-yl]-3-(trifluoromethyl)pyrazol-4-yl]-1-methyl-imidazole-2-carbonyl]amino]benzoyl]piperazine-1-carbonyl]piperidin-1-ium-1-yl]acetic acid;formate] | –
13 | 213 nM | Cn1c(-c2cn(-c3cc4[nH]c(C(=O)N5CC6CNCC(C5)O6)cc4cn3)nc2C(F)(F)F)cnc1C(=O)Nc1ccc(C(=O)N2CCN(C(=O)[C@H]3CC[N@+](CC(=O)O)(CC4CNC4)CC3)CC2)c(Cl)c1 [Example 116, cis-2-[1-(azetidin-3-ylmethyl)-4-[4-[2-chloro-4-[[1-methyl-5-[1-[2-(9-oxa-3,7-diazabicyclo[3.3.1]nonane-3-carbonyl)-1H-pyrrolo[3,2-c]pyridin-6-yl]-3-(trifluoromethyl)pyrazol-4-yl]imidazole-2-carbonyl]amino]benzoyl]piperazine-1-carbonyl]piperidin-1-ium-1-yl]acetic acid. 1:1 2,2,2-trifluoroacetic acid. 1:1 2,2,2-trifluoroacetate] | –
14 | 860 nM | Cn1c(-c2cn(-c3cc(N)ccn3)nc2C(F)(F)F)cnc1C(=O)Nc1ccc(C(=O)N2CCN(C(=O)C3CC[N+](CC(=O)O)(CC4CNC4)CC3)CC2)c(Cl)c1 (stereo not shown) [Example 71, 2-[4-[4-[4-[[5-[1-(4-amino-2-pyridyl)-3-(trifluoromethyl)pyrazol-4-yl]-1-methyl-imidazole-2-carbonyl]amino]-2-chloro-benzoyl]piperazine-1-carbonyl]-1-(azetidin-3-ylmethyl)piperidin-1-ium-1-yl]acetic acid. 1:1 2,2,2-trifluoroacetate] | –
15 | 870 nM | Cn1c(-c2cn(-c3ccc(N)cn3)nc2C(F)(F)F)cnc1C(=O)Nc1ccc(C(=O)N2CCN(C(=O)CCCN(CCCN)CC(=O)O)CC2)c(Cl)c1 [Example 72, 2-[3-aminopropyl-[4-[4-[4-[[5-[1-(5-amino-2-pyridyl)-3-(trifluoromethyl)pyrazol-4-yl]-1-methyl-imidazole-2-carbonyl]amino]-2-chloro-benzoyl]piperazino]-4-keto-butyl]amino]acetic acid. 1:1 2,2,2-trifluoroacetic acid] | –
16 | 380 nM | Cn1c(-c2cn(-c3ccc4[nH]c(CO)cc4n3)nc2C(F)(F)F)cnc1C(=O)Nc1ccc(C(=O)N2CCN(C(=O)[C@H]3CC[N@+](CC(=O)O)(CC4CNC4)CC3)CC2)c(Cl)c1 [Example 33, cis-2-[1-(azetidin-3-ylmethyl)-4-[4-[2-chloro-4-[[1-methyl-5-[1-(2-methylol-1H-pyrrolo[3,2-b]pyridin-5-yl)-3-(trifluoromethyl)pyrazol-4-yl]imidazole-2-carbonyl]amino]benzoyl]piperazine-1-carbonyl]piperidin-1-ium-1-yl]acetic acid. 1:1 2,2,2-trifluoroacetate] | –

From patent publication US20250179066A1, “ZWITTERIONIC ANTIBACTERIAL COMPOUNDS” (Hoffmann-La Roche Inc., priority 2022, published 2025)
